Tested on: chymotrypsin
Format: biochemical
Conditions: pH 8.0

Oc1cccnc1 [3-hydroxypyridine]
kinetics of the inhibition of chymotrypsin by AEBSF: not changed

— patent publication US6235509A (priority 1996, dated 2001)
